In US20160122406A1, “ANALOGS OF PITUITARY ADENYLATE CYCLASE-ACTIVATING POLYPEPTIDE (PACAP) AND METHODS FOR THEIR USE” (THE ADMINISTRATORS OF THE TULANE EDUCATIONAL FUND, priority 2013, published 2016):
“Also recorded” adds a separate entry of the source. Square brackets hold non-standard residues; d marks the D form. * marks the point of attachment. Iac = imidazole-4-acrylic acid, O=C(/C=C/c1c[nH]cn1)*; Acetyl(2-(4-imidazolyl)) = O=C(Cc1c[nH]cn1)*

System: Male Sprague-Dawley rats
Assay: Arterial blood pressure and heart rate after intravenous injection in anesthetized rats
Format: in vivo
Details: 10 micrograms i.v.; for heart rate before intravenous injection: the 'from' value; for heart rate after intravenous injection: the 'to' value; for change in arterial blood pressure / change in arterial pulse pressure: isoflurane-anesthetized rats
Excerpt: FIG. 9 is a graph showing the changes in arterial blood pressure caused by [Iaa^1]PACAP38, [Iaa^1,D-Ser^2]PACAP38, [Iaa^1,Ala^22]PACAP38, and [Iaa^1,D-Ser^2,Ala^22]PACAP38. Male Sprague-Dawley rats (300-325 g) were anesthetized with 5% isoflurane for induction and then intubated. The rats were then ventilated (Hallowell EMC) with 100% O2 and 1-2% isoflurane. A PE-50 cannula was then placed in the femoral artery and connected to a pressure transducer. The arterial pressure signal was sent to an electronic chart recorder (BioPac). Heart rate was electronically derived from the arterial pressure signal. A similar PE-50 cannula was also placed in the femoral vein to allow for intravenous injection of the test peptides. Ten micrograms of the test peptides were injected intravenously in 100 μl of 0.9% NaCl in a random order and the cannula was immediately flushed with 100 μl of 0.9% NaCl. Changes in blood pressure and heart rate were calculated from the electronic record. […] Intravenous injection of [Iaa1]PACAP38 or [Iaa1,Ala22]PACAP38 also produced an increase in the heart rate from 378 bpm to 425 bpm or from 415 bpm to 440 bpm, respectively.
FIG. 10 is a graph showing the changes in arterial blood pressure caused by [Iac^1]PACAP38, [Iac^1,Ala^22]PACAP38, [Iac^1,D-Ser^2,Ala^22]PACAP38, and [Iaa^1,Ala^16,17,D-Lys^38]PACAP38. Male Sprague-Dawley rats (300-325 g) were anesthetized with 5% isoflurane for induction and then intubated. The rats were then ventilated (Hallowell EMC) with 100% O2 and 1-2% isoflurane. A PE-50 cannula was then placed in the femoral artery and connected to a pressure transducer. The arterial pressure signal was sent to an electronic chart recorder (BioPac). Heart rate was electronically derived from the arterial pressure signal. A similar PE-50 cannula was also placed in the femoral vein to allow for intravenous injection of the test peptides. Ten micrograms of the test peptides were injected intravenously in 100 μl of 0.9% NaCl in a random order and the cannula was immediately flushed with 100 μl of 0.9% NaCl. Changes in blood pressure and heart rate were calculated from the electronic record. Intravenous injection of [Iac^1,Ala^22]PACAP38 or [Iac^1,D-Ser^2,Ala^22]PACAP38 produced an increase in the heart rate from 416 bpm to 435 bpm or from 420 bpm to 441 bpm, respectively.
PACAP38 is a directly-acting arterial vasodilator and an indirectly-acting arterial vasoconstrictor. The rapid vasodilator response to intravenous administration of PACAP38 is due to stimulation of PAC1, VPAC1 and VPAC2 receptors in the blood vessels, while the slightly delayed vasoconstrictor response is mainly due to stimulation of PAC1 receptors in the adrenal medulla and the subsequent release of adrenal catecholamines. […] The critical parameter for picking a PACAP38 analog for treating a specific disease is not potency but therapeutic index.

Row | Substance | heart rate before intravenous injection [bpm] | heart rate after intravenous injection [bpm] | change in arterial blood pressure | pattern of the arterial blood pressure response (compared with other peptides) | change in the heart rate (in words) | change in arterial pulse pressure | change in arterial blood pressure (D-Lys38]PACAP38) | change in arterial pulse pressure (D-Lys38]PACAP38) | duration of the arterial blood pressure response (compared with [Iaa1]PACAP38)
1 | Iac Ser Asp Gly Ile Phe Thr Asp Ser Tyr Ser Arg Tyr Arg Lys Gln Met Ala Val Lys Lys Ala Leu Ala Ala Val Leu Gly Lys Arg Tyr Lys Gln Arg Val Lys Asn Lys-NH2 (Iac-SDGIFTDSYSRYRKQMAVKKALAAVLGKRYKQRVKNK-NH2) [[Iac^1,Ala^22]PACAP38] | 416 | 435 |  |  |  |  |  |  | 
2 | Iac D-Ser Asp Gly Ile Phe Thr Asp Ser Tyr Ser Arg Tyr Arg Lys Gln Met Ala Val Lys Lys Ala Leu Ala Ala Val Leu Gly Lys Arg Tyr Lys Gln Arg Val Lys Asn Lys-NH2 (Iac-[dS]DGIFTDSYSRYRKQMAVKKALAAVLGKRYKQRVKNK-NH2) [[Iac^1,D-Ser^2,Ala^22]PACAP38] | 420 | 441 |  |  |  |  |  |  | 
3 | Iaa Ser Asp Gly Ile Phe Thr Asp Ser Tyr Ser Arg Tyr Arg Lys Gln Met Ala Val Lys Lys Ala Leu Ala Ala Val Leu Gly Lys Arg Tyr Lys Gln Arg Val Lys Asn Lys-NH2 ({Acetyl(2-(4-imidazolyl))}-SDGIFTDSYSRYRKQMAVKKALAAVLGKRYKQRVKNK-NH2; SMILES CC[C@H](C)[C@H](NC(=O)CNC(=O)[C@H](CC(=O)O)NC(=O)[C@H](CO)NC(=O)Cc1c[nH]cn1)C(=O)N[C@@H](Cc1ccccc1)C(=O)N[C@H](C(=O)N[C@@H](CC(=O)O)C(=O)N[C@@H](CO)C(=O)N[C@@H](Cc1ccc(O)cc1)C(=O)N[C@@H](CO)C(=O)N[C@@H](CCCNC(=N)N)C(=O)N[C@@H](Cc1ccc(O)cc1)C(=O)N[C@@H](CCCNC(=N)N)C(=O)N[C@@H](CCCCN)C(=O)N[C@@H](CCC(N)=O)C(=O)N[C@@H](CCSC)C(=O)N[C@@H](C)C(=O)N[C@H](C(=O)N[C@@H](CCCCN)C(=O)N[C@@H](CCCCN)C(=O)N[C@@H](C)C(=O)N[C@@H](CC(C)C)C(=O)N[C@@H](C)C(=O)N[C@@H](C)C(=O)N[C@H](C(=O)N[C@@H](CC(C)C)C(=O)NCC(=O)N[C@@H](CCCCN)C(=O)N[C@@H](CCCNC(=N)N)C(=O)N[C@@H](Cc1ccc(O)cc1)C(=O)N[C@@H](CCCCN)C(=O)N[C@@H](CCC(N)=O)C(=O)N[C@@H](CCCNC(=N)N)C(=O)N[C@H](C(=O)N[C@@H](CCCCN)C(=O)N[C@@H](CC(N)=O)C(=O)N[C@@H](CCCCN)C(N)=O)C(C)C)C(C)C)C(C)C)[C@@H](C)O) [[Iaa^1,Ala^22]PACAP38] | 415 | 440 | large decrease |  |  |  |  |  | 
4 | Iaa D-Ser Asp Gly Ile Phe Thr Asp Ser Tyr Ser Arg Tyr Arg Lys Gln Met Ala Val Lys Lys Ala Leu Ala Ala Val Leu Gly Lys Arg Tyr Lys Gln Arg Val Lys Asn Lys-NH2 ({Acetyl(2-(4-imidazolyl))}-[dS]DGIFTDSYSRYRKQMAVKKALAAVLGKRYKQRVKNK-NH2; SMILES CC[C@H](C)[C@H](NC(=O)CNC(=O)[C@H](CC(=O)O)NC(=O)[C@@H](CO)NC(=O)Cc1c[nH]cn1)C(=O)N[C@@H](Cc1ccccc1)C(=O)N[C@H](C(=O)N[C@@H](CC(=O)O)C(=O)N[C@@H](CO)C(=O)N[C@@H](Cc1ccc(O)cc1)C(=O)N[C@@H](CO)C(=O)N[C@@H](CCCNC(=N)N)C(=O)N[C@@H](Cc1ccc(O)cc1)C(=O)N[C@@H](CCCNC(=N)N)C(=O)N[C@@H](CCCCN)C(=O)N[C@@H](CCC(N)=O)C(=O)N[C@@H](CCSC)C(=O)N[C@@H](C)C(=O)N[C@H](C(=O)N[C@@H](CCCCN)C(=O)N[C@@H](CCCCN)C(=O)N[C@@H](C)C(=O)N[C@@H](CC(C)C)C(=O)N[C@@H](C)C(=O)N[C@@H](C)C(=O)N[C@H](C(=O)N[C@@H](CC(C)C)C(=O)NCC(=O)N[C@@H](CCCCN)C(=O)N[C@@H](CCCNC(=N)N)C(=O)N[C@@H](Cc1ccc(O)cc1)C(=O)N[C@@H](CCCCN)C(=O)N[C@@H](CCC(N)=O)C(=O)N[C@@H](CCCNC(=N)N)C(=O)N[C@H](C(=O)N[C@@H](CCCCN)C(=O)N[C@@H](CC(N)=O)C(=O)N[C@@H](CCCCN)C(N)=O)C(C)C)C(C)C)C(C)C)[C@@H](C)O) [[Iaa^1,D-Ser^2,Ala^22]PACAP38] | 410 | 457 | slight increase; also recorded: slightly increased | expected physiological signature of a highly selective PAC1 receptor agonist |  |  |  |  | 
5 | Iaa Ser Asp Gly Ile Phe Thr Asp Ser Tyr Ser Arg Tyr Arg Lys Ala Ala Ala Val Lys Lys Tyr Leu Ala Ala Val Leu Gly Lys Arg Tyr Lys Gln Arg Val Lys Asn D-Lys-NH2 ({Acetyl(2-(4-imidazolyl))}-SDGIFTDSYSRYRKAAAVKKYLAAVLGKRYKQRVKN[dK]-NH2; SMILES CC[C@H](C)[C@H](NC(=O)CNC(=O)[C@H](CC(=O)O)NC(=O)[C@H](CO)NC(=O)Cc1c[nH]cn1)C(=O)N[C@@H](Cc1ccccc1)C(=O)N[C@H](C(=O)N[C@@H](CC(=O)O)C(=O)N[C@@H](CO)C(=O)N[C@@H](Cc1ccc(O)cc1)C(=O)N[C@@H](CO)C(=O)N[C@@H](CCCNC(=N)N)C(=O)N[C@@H](Cc1ccc(O)cc1)C(=O)N[C@@H](CCCNC(=N)N)C(=O)N[C@@H](CCCCN)C(=O)N[C@@H](C)C(=O)N[C@@H](C)C(=O)N[C@@H](C)C(=O)N[C@H](C(=O)N[C@@H](CCCCN)C(=O)N[C@@H](CCCCN)C(=O)N[C@@H](Cc1ccc(O)cc1)C(=O)N[C@@H](CC(C)C)C(=O)N[C@@H](C)C(=O)N[C@@H](C)C(=O)N[C@H](C(=O)N[C@@H](CC(C)C)C(=O)NCC(=O)N[C@@H](CCCCN)C(=O)N[C@@H](CCCNC(=N)N)C(=O)N[C@@H](Cc1ccc(O)cc1)C(=O)N[C@@H](CCCCN)C(=O)N[C@@H](CCC(N)=O)C(=O)N[C@@H](CCCNC(=N)N)C(=O)N[C@H](C(=O)N[C@@H](CCCCN)C(=O)N[C@@H](CC(N)=O)C(=O)N[C@H](CCCCN)C(N)=O)C(C)C)C(C)C)C(C)C)[C@@H](C)O) [[Iaa^1,Ala^16,17,D-Lys^38]PACAP38] |  |  | large and prolonged decrease |  | large decrease | large and prolonged decrease | large decrease | large decrease | much longer
